According to ChEMBL document CHEMBL3600322, “Phenoxymethyl 1,3-oxazoles and 1,2,4-oxadiazoles as potent and selective agonists of free fatty acid receptor 1 (GPR40)” (Bioorg Med Chem Lett, 2015):

target: T1, Free fatty acid receptor 1 (Homo sapiens, UniProt O14842); assay: Agonist activity at GPR40 (unknown origin) expressed in CHO cells by FLIPR calcium flux assay in presence of 0.1% bovine serum albumin; format: functional, cell-based
T1 sequence (O14842 whole entry): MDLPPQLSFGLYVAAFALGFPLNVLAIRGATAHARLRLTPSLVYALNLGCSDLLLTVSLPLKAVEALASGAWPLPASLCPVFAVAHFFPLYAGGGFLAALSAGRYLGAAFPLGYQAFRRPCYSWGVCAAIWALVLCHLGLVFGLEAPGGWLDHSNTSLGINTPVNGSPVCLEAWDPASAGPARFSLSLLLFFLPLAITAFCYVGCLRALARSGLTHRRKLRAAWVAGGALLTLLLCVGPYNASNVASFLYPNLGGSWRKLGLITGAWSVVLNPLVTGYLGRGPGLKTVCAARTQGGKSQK

Structure (SMILES)	EC50 [µM]
O=C(O)CCc1ccc(OCc2noc(-c3ccccc3)n2)cc1	2.65
CC(Oc1ccc(CCC(=O)O)cc1)c1nc(-c2ccccc2)no1 (stereo not given)	2.39
Cc1cccc(-c2noc(COc3ccc(CCC(=O)O)cc3Cl)n2)c1	4.58
O=C(O)CCc1ccc(OCc2coc(-c3cccc(Cl)c3)n2)cc1	0.16
O=C(O)CCc1ccc(OCc2ncc(-c3cccc(Cl)c3)o2)cc1	47.5
COc1cccc(-c2noc(COc3ccc(CCC(=O)O)cc3Cl)n2)c1	3
O=C(O)CCc1ccc(OCc2nc(-c3cccc(C(F)(F)F)c3)no2)c(Cl)c1	30.1

Second part, the molecule after the results:

EC50 [µM]	Structure (SMILES)
0.56	O=C(O)CCc1ccc(OCc2coc(-c3cccc(F)c3)n2)cc1
1.26	O=C(O)CCc1ccc(OCc2nc(-c3cccc(Br)c3)no2)cc1
2.67	COc1cccc(-c2noc(COc3ccc(CCC(=O)O)cc3)n2)c1
0.21	CCc1ccc(-c2noc(COc3ccc(CCC(=O)O)cc3)n2)cc1
2.57	O=C(O)CCc1ccc(OCc2nc(-c3cccs3)no2)cc1
13.1	O=C(O)CCc1ccc(OCc2nc(-c3ccccc3)no2)c(Cl)c1
0.68	O=C(O)CCc1ccc(OCc2nc(-c3ccc(F)cc3)no2)cc1

target: T1, Free fatty acid receptor 1; assay: Agonist activity at GPR40 (unknown origin) expressed in CHO cells at 5 uM by FLIPR calcium flux assay relative to GW9508; format: functional, cell-based

Structure (SMILES)	Efficacy [%]
O=C(O)CCc1ccc(OCc2noc(-c3ccccc3)n2)cc1	42
CC(Oc1ccc(CCC(=O)O)cc1)c1nc(-c2ccccc2)no1 (stereo not given)	109
Cc1cccc(-c2noc(COc3ccc(CCC(=O)O)cc3Cl)n2)c1	54
O=C(O)CCc1ccc(OCc2coc(-c3cccc(Cl)c3)n2)cc1	106
O=C(O)CCc1ccc(OCc2ncc(-c3cccc(Cl)c3)o2)cc1	30
COc1cccc(-c2noc(COc3ccc(CCC(=O)O)cc3Cl)n2)c1	88
O=C(O)CCc1ccc(OCc2nc(-c3cccc(C(F)(F)F)c3)no2)c(Cl)c1	22

Now from value to molecule:

Efficacy [%]	Structure (SMILES)
99	O=C(O)CCc1ccc(OCc2coc(-c3cccc(F)c3)n2)cc1
130	O=C(O)CCc1ccc(OCc2nc(-c3cccc(Br)c3)no2)cc1
81	COc1cccc(-c2noc(COc3ccc(CCC(=O)O)cc3)n2)c1
106	CCc1ccc(-c2noc(COc3ccc(CCC(=O)O)cc3)n2)cc1
59	O=C(O)CCc1ccc(OCc2nc(-c3cccs3)no2)cc1
95	O=C(O)CCc1ccc(OCc2nc(-c3ccccc3)no2)c(Cl)c1
66	O=C(O)CCc1ccc(OCc2nc(-c3ccc(F)cc3)no2)cc1

target: CYP2C19 (Homo sapiens, UniProt P33261); assay: Inhibition of CYP2C19 (unknown origin) at 24 uM by luminescent readout-based method; format: ADME
Sequence (P33261 whole entry): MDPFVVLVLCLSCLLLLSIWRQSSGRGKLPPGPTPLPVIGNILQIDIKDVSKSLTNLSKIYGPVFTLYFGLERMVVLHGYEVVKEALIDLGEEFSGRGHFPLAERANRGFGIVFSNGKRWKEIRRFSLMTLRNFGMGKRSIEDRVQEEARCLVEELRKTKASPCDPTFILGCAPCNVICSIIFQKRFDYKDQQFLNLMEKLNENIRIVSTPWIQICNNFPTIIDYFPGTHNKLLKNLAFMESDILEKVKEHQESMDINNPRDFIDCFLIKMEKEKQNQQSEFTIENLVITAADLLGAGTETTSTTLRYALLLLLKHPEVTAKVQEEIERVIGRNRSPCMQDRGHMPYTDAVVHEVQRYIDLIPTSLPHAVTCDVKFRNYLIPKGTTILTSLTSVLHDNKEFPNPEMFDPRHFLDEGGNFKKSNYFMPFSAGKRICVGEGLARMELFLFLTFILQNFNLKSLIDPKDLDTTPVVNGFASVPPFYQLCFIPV

inhibition at 24 µM [%]	Structure (SMILES)
93.4	COc1ccc2[nH]c([S+]([O-])Cc3ncc(C)c(OC)c3C)nc2c1 (stereo not given) [OMEPRAZOLE]

target: CYP2D6 (Homo sapiens, UniProt P10635); assay: Inhibition of CYP2D6 (unknown origin) at 1 uM by luminescent readout-based method
Sequence (P10635 whole entry): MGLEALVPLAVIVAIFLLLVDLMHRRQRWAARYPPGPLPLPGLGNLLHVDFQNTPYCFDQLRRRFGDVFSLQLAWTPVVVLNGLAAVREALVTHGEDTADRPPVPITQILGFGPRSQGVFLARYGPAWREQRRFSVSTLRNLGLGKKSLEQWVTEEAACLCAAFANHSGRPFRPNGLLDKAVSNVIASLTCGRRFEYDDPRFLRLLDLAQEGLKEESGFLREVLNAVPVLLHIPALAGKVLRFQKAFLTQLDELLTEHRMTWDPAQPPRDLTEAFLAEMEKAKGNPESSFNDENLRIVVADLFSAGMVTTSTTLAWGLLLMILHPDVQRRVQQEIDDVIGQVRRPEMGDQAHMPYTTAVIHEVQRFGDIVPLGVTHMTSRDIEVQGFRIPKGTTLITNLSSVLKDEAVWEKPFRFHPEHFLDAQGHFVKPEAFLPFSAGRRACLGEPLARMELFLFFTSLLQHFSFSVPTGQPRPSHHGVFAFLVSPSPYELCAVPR

inhibition at 1 µM [%]	Structure (SMILES)
96.2	C=C[C@H]1C[N@@]2CC[C@H]1C[C@@H]2[C@@H](O)c1ccnc2ccc(OC)cc12 [QUINIDINE]
